# Test results published in patent US11149018B2, “Substituted N-arylethyl-2-aminoquinoline-4-carboxamides and use thereof” (Bayer Aktiengesellschaft, priority 2017, dated 2021).
# Target: FP receptor (Homo sapiens (Human), UniProt P43088)
# Test: In vitro test of inhibition of human FP receptor activity (PGF2α-induced calcium flux in FP-expressing CHEM1 cells)
# Type: cell-based
# Conditions: PGF2α 2 nM, some mean values of multiple determinations
# Method: B-1. In Vitro Test of Inhibition of Human FP Receptor Activity
# For the characterization of test substances in respect of FP antagonism, PGF2α-induced calcium flux in FP-expressing CHEM1 cells (Millipore, HTS093C) was used.
# 10 μl of the prediluted substance solution are added to the Fluo-8-laden cells and incubated at 37° C., 5% CO2 for 10 minutes. The FP receptor is activated by adding 40 μl of 2 nM (final concentration) PGF2α in calcium-free Tyrode, 2 mM CaCl2, 0.002% SmartBlock, and the calcium flux is determined by measuring the fluorescence at ex. 470 nm/[…].
# Table 1 below lists the IC50 values from this assay for individual working examples of the invention (some as mean values from multiple independent individual determinations): […]
# FP receptor, sequence (P43088 whole entry): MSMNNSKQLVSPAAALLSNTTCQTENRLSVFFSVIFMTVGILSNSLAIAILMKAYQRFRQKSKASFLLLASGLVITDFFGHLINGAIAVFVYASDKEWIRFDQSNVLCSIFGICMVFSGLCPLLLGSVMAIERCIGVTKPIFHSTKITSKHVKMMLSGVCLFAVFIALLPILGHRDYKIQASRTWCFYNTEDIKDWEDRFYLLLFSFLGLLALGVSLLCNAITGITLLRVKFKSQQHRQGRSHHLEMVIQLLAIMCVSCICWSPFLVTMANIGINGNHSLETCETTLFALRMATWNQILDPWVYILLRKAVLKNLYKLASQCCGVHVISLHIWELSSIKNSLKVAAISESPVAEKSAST
row,Compound,IC50 [µM]
1,"Cc1c(N2CCCC2)nc2ccc(Br)cc2c1C(=O)NCC(CCC(=O)O)c1cc(F)ccc1F (racemic) [Example 258, (+/−)-5-({[6-Bromo-3-methyl-2-(pyrrolidin-1-yl)quinolin-4-yl]carbonyl}amino)-4-(2,5-difluorophenyl)pentanoic acid]",0.08
2,"CCC1CCCN(c2nc3ccc(Br)cc3c(C(=O)NCC(CCC(=O)O)c3ccccc3OC(F)(F)F)c2C)C1 (single isomer, unassigned; (+)) [Example 205, (+)-5-[({6-Bromo-2-[3-ethylpiperidin-1-yl]-3-methylquinolin-4-yl}carbonyl)amino]-4-[2-(trifluoromethoxy)phenyl]pentanoic acid]",0.00041
3,"Cc1c(N2CCC(F)(F)C2)nc2ccc(Br)cc2c1C(=O)NCC(CCC(=O)O)c1ccccc1Cl (racemic) [Example 37, (+/−)-5-({[6-Bromo-2-(3,3-difluoropyrrolidin-1-yl)-3-methylquinolin-4-yl]carbonyl}amino)-4-(2-chlorophenyl)pentanoic acid]",0.022
4,"Cc1c(N2CC3CCCCC3C2)nc2ccc(Br)cc2c1C(=O)NCC(CCC(=O)O)c1ccccc1Cl (racemic) [Example 86, (+/−)-5-({[6-Bromo-3-methyl-2-(octahydro-2H-isoindol-2-yl)quinolin-4-yl]carbonyl}amino)-4-(2-chlorophenyl)pentanoic acid]",0.33
5,"Cc1c(N2CCCC(F)(F)C2)nc2ccc(Br)cc2c1C(=O)NCC(CCC(=O)O)c1c(F)ccc(F)c1Cl (single isomer, unassigned; (-)) [Example 218, (−)-5-({[6-Bromo-2-(3,3-difluoropiperidin-1-yl)-3-methylquinolin-4-yl]carbonyl}amino)-4-(2-chloro-3,6-difluorophenyl)pentanoic acid]",0.0012
6,"Cc1c(N2CCCC(F)C2)nc2ccc(Br)cc2c1C(=O)NCC(CCC(=O)O)c1ccccc1C(F)(F)F (single isomer, unassigned; (+)) [Example 189, (+)-5-[({6-Bromo-2-[3-fluoropiperidin-1-yl]-3-methylquinolin-4-yl}carbonyl)amino]-4-[2-(trifluoromethyl)phenyl]pentanoic acid]",0.025
7,(+)-5-[({6-Bromo-3-methyl-2-[(^2H10)piperidin-1-yl]quinolin-4-yl}carbonyl)amino]-4-[2-(trifluoromethyl)phenyl]pentanoic acid [Example 270],0.0033
8,"Cc1c(N2CCOCC2)nc2ccc(Br)cc2c1C(=O)NCC(CCC(=O)O)c1cc(F)ccc1Cl (racemic) [Example 9, (+/−)-5-({[6-Bromo-3-methyl-2-(morpholin-4-yl)quinolin-4-yl]carbonyl}amino)-4-(2-chloro-5-fluorophenyl)pentanoic acid]",0.29
9,"Cc1c(N2CCSCC2)nc2ccc(Br)cc2c1C(=O)NCC(CCC(=O)O)c1ccccc1Cl (single isomer, unassigned; (+)) [Example 26, (+)-5-({[6-Bromo-3-methyl-2-(thiomorpholin-4-yl)quinolin-4-yl]carbonyl}amino)-4-(2-chlorophenyl)pentanoic acid]",0.021
10,"Cc1c(N2CCCC(F)C2)nc2ccc(Br)cc2c1C(=O)NCC(CCC(=O)O)c1c(F)cccc1C(F)(F)F (stereo not drawn) [Example 169, 5-[({6-Bromo-2-[3-fluoropiperidin-1-yl]-3-methylquinolin-4-yl}carbonyl)amino]-4-[2-fluoro-6-(trifluoromethyl)phenyl]pentanoic acid]",0.0091
11,"Cc1c(N2CCCC(F)(F)C2)nc2ccc(Br)cc2c1C(=O)NCC(CCC(=O)O)c1c(Cl)cccc1Cl (single isomer, unassigned; (-)) [Example 265, (−)-5-({[6-Bromo-2-(3,3-difluoropiperidin-1-yl)-3-methylquinolin-4-yl]carbonyl}amino)-4-(2,6-dichlorophenyl)pentanoic acid]",0.013
12,"CCC1CCCN(c2nc3ccc(Br)cc3c(C(=O)NCC(CCC(=O)O)c3ccccc3Cl)c2C)C1 (single isomer, unassigned; (-)) [Example 59, (−)-5-[({6-Bromo-2-[3-ethylpiperidin-1-yl]-3-methylquinolin-4-yl}carbonyl)amino]-4-(2-chlorophenyl)pentanoic acid]",0.011
13,"Cc1c(N2CCSCC2)nc2ccc(Br)cc2c1C(=O)NCC(CCC(=O)O)c1ccccc1Cl (single isomer, unassigned; (-)) [Example 27, (−)-5-({[6-Bromo-3-methyl-2-(thiomorpholin-4-yl)quinolin-4-yl]carbonyl}amino)-4-(2-chlorophenyl)pentanoic acid]",0.014
14,"Cc1c(NCCC(F)(F)F)nc2ccc(Br)cc2c1C(=O)NCC(CCC(=O)O)c1ccccc1Cl (racemic) [Example 98, (+/−)-5-[({6-Bromo-3-methyl-2-[(3,3,3-trifluoropropyl)amino]quinolin-4-yl}carbonyl)amino]-4-(2-chlorophenyl)pentanoic acid]",0.53
15,"Cc1ccccc1C(CCC(=O)O)CNC(=O)c1c(C)c(N2CCCCC2)nc2ccc(Br)cc12 (racemic) [Example 242, (+/−)-5-({[6-Bromo-3-methyl-2-(piperidin-1-yl)quinolin-4-yl]carbonyl}amino)-4-(2-methylphenyl)pentanoic acid]",0.0071
16,"CCC1CCCN(c2nc3ccc(Br)cc3c(C(=O)NCC(CCC(=O)O)c3ccccc3C(F)(F)F)c2C)C1 (single isomer, unassigned; (+)) [Example 196, (+)-5-[({6-Bromo-2-[3-ethylpiperidin-1-yl]-3-methylquinolin-4-yl}carbonyl)amino]-4-[2-(trifluoromethyl)phenyl]pentanoic acid]",0.0026
17,"Cc1c(N2CCCC(F)(F)C2)nc2ccc(Br)cc2c1C(=O)NCC(CCC(=O)O)c1c(Cl)ccc(Cl)c1Cl (single isomer, unassigned; (-)) [Example 179, (−)-5-({[6-Bromo-2-(3,3-difluoropiperidin-1-yl)-3-methylquinolin-4-yl]carbonyl}amino)-4-(2,3,6-trichlorophenyl)pentanoic acid]",0.0023
18,"Cc1c(N2CCCC(F)C2)nc2ccc(Br)cc2c1C(=O)NCC(CCC(=O)O)c1ccccc1OC(F)(F)F (single isomer, unassigned; (-)) [Example 202, (−)-5-[({6-Bromo-2-[3-fluoropiperidin-1-yl]-3-methylquinolin-4-yl}carbonyl)amino]-4-[2-(trifluoromethoxy)phenyl]pentanoic acid]",0.0017

# More lines, in order of falling IC50, values ahead:
row,IC50 [µM],Compound
1,0.36,"Cc1c(N2CCCCC2C)nc2ccc(Br)cc2c1C(=O)NCC(CCC(=O)O)c1ccccc1Cl (stereo not drawn) [Example 108, 5-[({6-Bromo-3-methyl-2-[2-methylpiperidin-1-yl]quinolin-4-yl}carbonyl)amino]-4-(2-chlorophenyl)pentanoic acid]"
2,0.072,"Cc1c(N2CCCC(F)(F)C2)nc2ccc(Br)cc2c1C(=O)NCC(CCC(=O)O)c1c(F)cccc1F (single isomer, unassigned; (+)) [Example 251, (+)-5-({[6-Bromo-2-(3,3-difluoropiperidin-1-yl)-3-methylquinolin-4-yl]carbonyl}amino)-4-(2,6-difluorophenyl)pentanoic acid]"
3,0.024,"Cc1c(N2CCCC3(CC3)C2)nc2ccc(Br)cc2c1C(=O)NCC(CCC(=O)O)c1ccccc1Cl (racemic) [Example 110, (+/−)-5-({[2-(5-Azaspiro[2.5]oct-5-yl)-6-bromo-3-methylquinolin-4-yl]carbonyl}amino)-4-(2-chlorophenyl)pentanoic acid]"
4,0.022,"Cc1c(N2CCSCC2)nc2ccc(Br)cc2c1C(=O)NCC(CCC(=O)O)c1ccccc1Cl (racemic) [Example 25, (+/−)-5-({[6-Bromo-3-methyl-2-(thiomorpholin-4-yl)quinolin-4-yl]carbonyl}amino)-4-(2-chlorophenyl)pentanoic acid]"
5,0.014,"Cc1c(N2CCCC(F)(F)C2)nc2ccc(Br)cc2c1C(=O)NCC(CCC(=O)O)c1ccccc1C(F)(F)F (single isomer, unassigned; (+)) [Example 119, (+)-5-({[6-Bromo-2-(3,3-difluoropiperidin-1-yl)-3-methylquinolin-4-yl]carbonyl}amino)-4-[2-(trifluoromethyl)phenyl]pentanoic acid]"
6,0.0098,"Cc1c(N2CCCC2)nc2ccc(Br)cc2c1C(=O)NCC(CCC(=O)O)c1ccccc1OC(F)(F)F (single isomer, unassigned; (+)) [Example 131, (+)-5-({[6-Bromo-3-methyl-2-(pyrrolidin-1-yl)quinolin-4-yl]carbonyl}amino)-4-[2-(trifluoromethoxy)phenyl]pentanoic acid]"
7,0.0057,"Cc1c(N2CCCC(C(F)(F)F)C2)nc2ccc(Br)cc2c1C(=O)NCC(CCC(=O)O)c1ccccc1Cl (stereo not drawn) [Example 53, 5-[({6-Bromo-3-methyl-2-[3-(trifluoromethyl)piperidin-1-yl]quinolin-4-yl}carbonyl)amino]-4-(2-chlorophenyl)pentanoic acid]"
8,0.003,"Cc1c(N2CCCC(F)(F)C2)nc2ccc(Br)cc2c1C(=O)NCC(CCC(=O)O)c1ccccc1Cl (racemic) [Example 50, (+/−)-5-({[6-Bromo-2-(3,3-difluoropiperidin-1-yl)-3-methylquinolin-4-yl]carbonyl}amino)-4-(2-chlorophenyl)pentanoic acid]"
9,0.0018,"CCC1CCCN(c2nc3ccc(Br)cc3c(C(=O)NCC(CCC(=O)O)c3cc(F)ccc3F)c2C)C1 (racemic) [Example 226, (−)-5-[({6-Bromo-2-[3-ethylpiperidin-1-yl]-3-methylquinolin-4-yl}carbonyl)amino]-4-(2,5-difluorophenyl)pentanoic acid]"
